According to the NIST ThermoML archive (doi:10.1021/je0495583):
Numbers after ± are expanded uncertainties.

What was measured:
[1] = 293.15 K; 101.33 kPa; Liquid; Pycnometric method
[2] = refractive index (Na D-line) (dimensionless); details: 298.15 K; 101.33 kPa; Liquid; Standard Abbe refractometry

mass density [1] [kg/m3] | refractive index [2] | SMILES
770.6 ± 0.8 | 1.3867 ± 0.0008 | CCC(C)(C)OC [2-methoxy-2-methylbutane]
740.5 ± 0.8 | 1.366 ± 0.0008 | COC(C)(C)C [2-methoxy-2-methylpropane]
778.4 ± 0.8 | 1.4236 ± 0.0008 | C1CCCCC1 [cyclohexane]
659.4 ± 0.6 | 1.3722 ± 0.0007 | CCCCCC [hexane]

SMILES | mass density [1] [kg/m3] | refractive index [2]
Cc1ccccc1 [toluene] | 866.2 ± 0.9 | 1.4941 ± 0.0008
